Results on four molecules are retold here after ChEMBL document CHEMBL1914391, “Design and synthesis of biotinylated inositol 1,3,4,5-tetrakisphosphate targeting Grp1 pleckstrin homology domain” (Bioorg Med Chem, 2011).

pKd: −log10 of the molar value.

In general, pKd refers to −log10 of the Kd, conventionally taken in molar units.

Experiment [1] deals with T1, Cytohesin-3 (Rattus norvegicus, UniProt P97696).
T1 sequence (P97696 whole entry): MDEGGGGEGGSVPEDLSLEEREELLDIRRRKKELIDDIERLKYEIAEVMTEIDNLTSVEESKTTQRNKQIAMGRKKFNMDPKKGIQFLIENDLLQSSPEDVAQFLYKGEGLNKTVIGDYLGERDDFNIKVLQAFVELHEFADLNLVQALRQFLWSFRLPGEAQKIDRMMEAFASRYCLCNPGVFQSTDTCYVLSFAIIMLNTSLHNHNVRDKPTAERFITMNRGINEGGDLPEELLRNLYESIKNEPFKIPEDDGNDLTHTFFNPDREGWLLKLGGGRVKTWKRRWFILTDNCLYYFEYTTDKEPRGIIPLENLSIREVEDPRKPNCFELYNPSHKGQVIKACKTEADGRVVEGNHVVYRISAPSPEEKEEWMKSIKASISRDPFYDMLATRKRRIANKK
Nature of the experiment: Binding affinity to recombinant rat brain Grp1 PH domain (amino acids 1 to 120) by SPR analysis. For orientation: Surface plasmon resonance follows binding to a sensor surface in real time, without labels.

Experiment [2] has as its target T2, 1-phosphatidylinositol 4,5-bisphosphate phosphodiesterase delta-1 (Rattus norvegicus, UniProt P10688).
T2 sequence (P10688 whole entry): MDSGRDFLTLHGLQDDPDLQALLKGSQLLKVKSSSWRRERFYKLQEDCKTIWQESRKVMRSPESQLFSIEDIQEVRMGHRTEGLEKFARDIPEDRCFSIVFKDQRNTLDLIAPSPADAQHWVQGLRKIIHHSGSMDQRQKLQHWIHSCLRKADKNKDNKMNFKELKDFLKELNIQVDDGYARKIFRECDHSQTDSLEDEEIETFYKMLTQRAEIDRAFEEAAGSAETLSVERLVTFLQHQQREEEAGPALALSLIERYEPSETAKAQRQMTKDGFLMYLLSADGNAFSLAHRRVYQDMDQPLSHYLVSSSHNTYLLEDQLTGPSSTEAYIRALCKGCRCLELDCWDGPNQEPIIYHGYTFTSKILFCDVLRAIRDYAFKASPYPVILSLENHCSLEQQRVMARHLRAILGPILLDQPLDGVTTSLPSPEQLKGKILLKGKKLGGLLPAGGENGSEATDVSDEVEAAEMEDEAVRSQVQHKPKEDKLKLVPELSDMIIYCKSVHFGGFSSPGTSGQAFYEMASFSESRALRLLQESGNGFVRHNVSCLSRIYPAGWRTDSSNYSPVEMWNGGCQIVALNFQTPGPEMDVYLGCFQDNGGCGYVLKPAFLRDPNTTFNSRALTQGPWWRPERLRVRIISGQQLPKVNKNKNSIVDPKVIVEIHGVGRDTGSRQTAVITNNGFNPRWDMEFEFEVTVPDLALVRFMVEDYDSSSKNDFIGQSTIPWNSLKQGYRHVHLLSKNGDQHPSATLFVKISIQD
The experiment can be described thus: Binding affinity to recombinant rat brain PLCdelta1 PH domain (amino acids 11 to 140) by SPR analysis.

Experiment [3] concerns the target T3, 1-phosphatidylinositol 4,5-bisphosphate phosphodiesterase delta-1 (Homo sapiens, UniProt P51178).
T3 sequence (P51178 whole entry): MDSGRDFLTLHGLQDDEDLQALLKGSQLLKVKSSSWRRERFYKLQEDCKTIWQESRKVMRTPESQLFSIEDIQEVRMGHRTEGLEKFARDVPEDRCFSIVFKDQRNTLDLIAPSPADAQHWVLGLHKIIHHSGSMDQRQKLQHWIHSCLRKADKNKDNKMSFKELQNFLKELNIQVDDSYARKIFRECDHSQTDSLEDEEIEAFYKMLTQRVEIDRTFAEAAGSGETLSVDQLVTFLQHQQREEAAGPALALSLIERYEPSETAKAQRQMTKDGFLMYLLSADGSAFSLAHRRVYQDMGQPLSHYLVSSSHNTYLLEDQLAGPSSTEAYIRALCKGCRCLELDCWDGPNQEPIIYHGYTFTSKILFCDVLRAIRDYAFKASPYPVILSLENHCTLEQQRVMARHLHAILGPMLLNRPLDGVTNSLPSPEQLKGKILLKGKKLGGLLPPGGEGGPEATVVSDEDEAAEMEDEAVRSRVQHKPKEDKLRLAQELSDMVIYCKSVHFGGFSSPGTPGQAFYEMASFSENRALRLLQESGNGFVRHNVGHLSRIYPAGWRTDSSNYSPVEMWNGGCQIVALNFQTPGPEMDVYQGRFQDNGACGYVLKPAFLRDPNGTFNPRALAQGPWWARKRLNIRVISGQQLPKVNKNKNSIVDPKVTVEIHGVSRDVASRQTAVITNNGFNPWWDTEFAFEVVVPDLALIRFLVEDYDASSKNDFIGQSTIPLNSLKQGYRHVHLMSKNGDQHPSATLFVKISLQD
Nature of the experiment: Binding affinity to PLCdelta1 PH domain.

Experiment [4] concerns the target T1, Cytohesin-3. Nature of the experiment: Binding affinity to recombinant rat brain Grp1 PH domain (amino acids 1 to 120) after 10 mins by pull-down assay.

With `O=C(CCCC[C@@H]1SC[C@@H]2NC(=O)N[C@@H]21)NCCCCCCOP(=O)(O)O[C@H]1[C@H](O)[C@@H](OP(=O)(O)O)[C@H](OP(=O)(O)O)[C@@H](OP(=O)(O)O)[C@H]1O`, the pKd on Cytohesin-3 [1] was 6.52; in experiment [2] it was below 5.30; in experiment [3], 6.60; at Cytohesin-3 [4], 6.85.

With `O=C(CCCC[C@@H]1SC[C@@H]2NC(=O)N[C@@H]21)NCCCCCCOP(=O)(O)O[C@@H]1[C@H](O)[C@H](O)[C@@H](OP(=O)(O)O)[C@H](OP(=O)(O)O)[C@H]1O`, the pKd on Cytohesin-3 [1] is below 6.00; in experiment [2], 5.66.

Turning to `O=C(CCCC[C@@H]1SC[C@@H]2NC(=O)N[C@@H]21)NCCCCCCOP(=O)(O)O[C@@H]1[C@@H](O)[C@H](OP(=O)(O)O)[C@@H](OP(=O)(O)O)[C@H](O)[C@@H]1O`, the negative logarithm of the Kd (pKd) on Cytohesin-3 [1] is below 6.00; in experiment [2] it was below 5.30.

On to `O=P(O)(O)O[C@H]1[C@H](O)[C@@H](OP(=O)(O)O)[C@H](OP(=O)(O)O)[C@@H](OP(=O)(O)O)[C@H]1O`, for which the negative-log Kd (pKd) at Cytohesin-3 [4] was 7.00.
